Measurements from US9056888B2 (priority 2011, dated 2015).
“Also recorded” adds a separate entry of the source. Like-named read-outs stand apart in the source and are kept apart here.

How the values were obtained:
HIV-1 = assay: Infection inhibition assay, MAGIC-5B indicator cells; settings: Table 1
Protocol: The evaluation of HIV-1 inhibition was carried out using MAGIC-5B indicator cells, which stably express the β-galactosidase reporter gene cloned downstream of the HIV-1 LTR promoter. Cells were plated at 8×10^4 cells per well, in 24-well plates and exposed to HIV-1 (x ng p24). Forty-eight hours post-infection, viral infectivity was monitored by quantification of o-nitrophenyl β-D-galactopyranoside hydrolysis from cell lysates (kit). β-galactosidase activity was normalized according to total protein content in the cell lysate. Control wells containing virus and cells only (no drug) and cells only (no virus or drug) were also prepared.

[1] = Cytotoxicity, MTT assay (Table 1); assay type: cell-based; settings: mean
Protocol: The cellular toxicity of the different compounds was evaluated using the MTT assays. […] The selectivity index (SI) was defined as the ratio CC50: IC50 (Table 1).

[2] = tested on: HIV-1 VLP assembly (Pr55Gag); assay: microbe, parasite or virus in culture; assay type: cell-based; settings: for SI (ratio CC50:IC50): Table 2
Protocol: Aliquots of Sf9 cells (10^6) were infected with two recombinant baculoviruses at equal multiplicity of infection (MOI of 10 PFU/cell, each). One expressed the HIV-1 Gag precursor (AcMNPV-Pr55Gag or control, p6-deleted AcMNPV-GagΔp6), the other the control Vpr protein (AcMNPV-Vpr) or the LucVpr fusion (AcMNPV-LucVpr). […] To avoid any interference with a possible effect of DMSO, DMSO was kept constant in volume in the different samples. […] Cells were harvested at 48 h pi, and extracellular VLP released in the culture medium were quantitated using luciferase assay. Membrane-enveloped VLP were pelleted and resuspended in lysis KDT buffer (KDT: 0.1M potassium phosphate buffer, pH 7.8, 1 mM DTT, containing 0.2% Triton X100) for 30 min at 37° C. with vortexing every 10 min. Luciferase activity associated with VLP was measured as previously described [10], using a Lumat LB-9501 luminometer (Berthold Technologies, Bad Wildbad, Germany). […] To compensate for eventual negative effects of drugs on LucVpr expression, the luciferase activity was measured in the corresponding cell lysates, obtained after lysis of the pelleted cells with KDT buffer. The results were expressed as relative light units (RLU) per μg protein. The values of the ratio of VLP-associated to intracellular luciferase activity were plotted versus the inhibitor concentration.
Cell culture medium was then harvested at 48 h pi, subjected to the 2-step ultracentrifugation analysis, and each gradient fraction probed for Gag polyprotein and luciferase activity, as above. […] The gradient fractions corresponding to the peak of luciferase activity were pooled, and the VLP contained in these fractions were pelleted, lysed and assayed for luciferase content.
Drug treatment was maintained for a further 24 h, and VLP released in the cell culture medium were pelleted through a sucrose cushion [8]. The amounts of extracellular VLP recovered in the 48 h-pellets obtained in the presence of the different inhibitors were determined using the luciferase assays. After normalization to the luciferase activity determined in the corresponding cell lysates, the values of the ratio of VLP-incorporated to cell-associated luciferase activity were plotted versus the drug concentrations.

[3] = Cytotoxicity, MTT assay (Table 2); assay type: cell-based; settings: for CC50: MTT assay, mean
Protocol: The cellular toxicity of the different compounds was evaluated using the MTT assays. […] The selectivity index (SI) was defined as the CC50 to IC50 ratio.

CA-SP1 cleavage = assay: HIV-1 maturation inhibition assay, p25 (CA-SP1) to p24 (CA) processing in virion lysate; assay type: cell-based; settings: Western blot (FIG. 2)
Protocol: Two days after transfection, virus-containing supernatants were concentrated by ultracentrifugation through a layer of 20% sucrose at 25 000 rpm for 2 h30. Viral pellets were then resuspended in RIPA lysis buffer [10 mM Tris-HCl (pH 7.4), 1 mM EDTA, 100 mM NaCl, 1% Triton X-100, 0.1% SDS, 0.25% sodium deoxycholate, 0.2% phenylmethylsulfonyl fluoride (PMSF)]. Viral proteins were loaded on a 12.5% SDS-PAGE gel.
To further elucidate the mechanism of action, viral samples used for infection assays were subjected to biochemical characterization (FIG. 2).

HIV-1 virion morphology = assay: Thin-section electron microscopy of virions from pNL4-3 transfected 293T cells; assay type: cell-based; settings: pNL4-3, 5 μg/ml (FIG. 3)
Protocol: Two days after transfection, 293T cells were processed for thin-layer electron microscopy as follows: cells were fixed in situ with 2.5% glutaraldehyde in cacodylate buffer (pH 7.4) for 60 min at 4° C. Cells were then post-fixed with 2% osmium tetroxide, washed in cacodylate buffer containing 0.5% tanic acid, and embedded in epon (Embed-812, Electron Microscopy Sciences Inc.). Sections were counterstained with uranyl acetate and lead citrate and examined with an Hitachi H7100 transmission electron microscope.
In the absence of compounds, cells transfected with pNL4-3 produced virus particles with the classical mature morphology characterized by the presence of condensed, conical cores (FIG. 3A).

VLP assembly and budding [4] = assay: Electron microscopy of AcMNPV-Gag-infected Sf9 cells; assay type: cell-based, HIV-1; settings: 5 and 10 μg/ml for 24 h at 24 h pi
Protocol: Baculovirus-infected Sf9 cells were harvested at 48 h pi, pelleted, fixed with 2.5% glutaraldehyde in 0.1 M phosphate buffer, pH 7.5, post-fixed with osmium tetroxide (2% in H2O) and treated with 0.5% tannic acid solution in H2O. The specimens were dehydrated and embedded in Epon (Epon-812; Fulham, Latham, N.Y.). Ultrathin sections were stained with 2.6% alkaline lead citrate and 0.5% uranyl acetate in 50% ethanol, and post-stained with 0.5% uranyl acetate solution in H2O [8,9]. Grids were examined under a Jeol JEM-1400 electron microscope, equipped with an ORIUS™ digitalized camera (Gatan France, 78113-Grandchamp). For statistical EM analyses, a minimum of 30 grid squares containing 10 to 20 cell sections each were examined for counting VLP budding at the cell surface, or budding in intracellular vesicular compartment.
By contrast, control, untreated AcMNPV-Gag-infected Sf9 cells were decorated with VLP budding in abundance from the plasma membrane.

Pr55Gag = biological target: T1, Pr55Gag (Human immunodeficiency virus type 1 group M subtype B, UniProt P03348); assay: Chemical cross-linking of intracellular Pr55Gag with BS3; assay type: cell-based, HIV-1; settings: Sf9 cells, 10 μg/ml
T1 construct: AcMNPV-Pr55Gag expressed the full-length wild type (WT) Gag polyprotein (Pr55Gag); expressed in transfected cells; host or cells: Spodoptera frugiperda Sf9 cells infected with recombinant baculovirus AcMNPV-Pr55Gag
Protocol: Aliquots of recombinant baculovirus-infected Sf9 cells (5×10^5 cells) untreated or treated with 16 at 10 ug/ml for 24 h at 24 h pi were centrifuged at low speed, resuspended in 200 μl of PBS containing the cross-linker bis(sulfosuccinimidyl)suberate (BS3; Pierce Biotechnology, Rockford, Ill.) at increasing molarities, ranging from 0 to 50 mM [12], and incubated in this buffer for 30 min at room temperature (RT). Cell samples were then centrifuged, resuspended and lysed in 200 μl 0.015 M NaCl, 0.5 mM phosphate buffer pH 7.3 containing BS3 at the same molarites as in the original mixtures, and further incubated for 30 min at RT. Cell lysates were mixed with 30 μl 6 times concentrated (6×) SDS-sample buffer without β-mercaptoethanol, heated to 100° C. for 1 min, and Gag proteins analyzed by SDS-PAGE and immunoblotting. […]
To further analyse the mechanism of the effect of 16 on Gag polyprotein assembly, untreated and 16-treated (10 μg/ml), Pr55Gag-expressing Sf9 cells were incubated with increasing concentrations of the chemical cross-linker BS3 at 48 h pi for 30 min at room temperature, then lysed in hypotonic medium in the presence of BS3 used in the same range of concentrations. The oligomeric status of the Gag proteins was assessed by SDS-PAGE and Western blot analysis, using anti-Gag antibody, peroxidase-labeled complementary antibody and enhanced chemiluminescence (ECL). […]

VLP assembly and budding [5] = settings: 10 μg/ml (17 μM), previous study [8]; cited from earlier work
HIV-1 VLP = settings: read-out: IC50 previously determined using immuno-radiochemical assay of VLP; reference [8]; cited from earlier work
[6] = Human immunodeficiency virus 1, read-out: IC50, inhibition of HIV-1 VLP assembly, Sf9 cells, mean
[7] = Human immunodeficiency virus 1, read-out: IC50, inhibition of HIV-1 VLP assembly, Sf9 cells, mean ± SEM, n = 4

SMILES: C=C(C)[C@@H]1CC[C@]2(C(=O)O)CC[C@]3(C)[C@H](CC[C@@H]4[C@@]5(C)CC[C@H](O)C(C)(C)[C@@H]5CC[C@]43C)[C@@H]12 [BA, betulinic acid, reference compound]
- SI (CC50/IC50 ratio) (HIV-1): 0.85
- CC50 [1]: 4.52 µM
- SI (ratio CC50:IC50) [2]: 1.1
- CC50 [3]: 43.8 µM

SMILES: C=C(C)[C@@H]1CC[C@]2(C(=O)NCC(=O)O)CC[C@]3(C)C(CCC4[C@@]5(C)CC[C@H](OC(=O)CC(C)(C)C(=O)O)C(C)(C)C5CC[C@]43C)C12 (stereo partly drawn) [Compound 12, N-[3β-(3-carboxy-3-methylbutanoyloxy)-lup-20,29-en-28-oyl]-glycine]
- IC50 ([2]; Sf9 cells, mean, read-out: IC50, inhibition of HIV-1 VLP assembly): 5.9 µM

SMILES: C=C(C)[C@@H]1CC[C@]2(C(=O)NCC(=O)O)CC[C@]3(C)[C@H](CC[C@@H]4[C@@]5(C)CC[C@H](OC(=O)CC(C)(C)C(=O)O)C(C)(C)[C@@H]5CC[C@]43C)[C@@H]12 [Compound 12, N-[3β-(3-carboxy-3-methylbutanoyloxy)-lup-20,29-en-28-oyl]-glycine]
- SI (CC50/IC50 ratio) (HIV-1): 309.37
- CC50 [1]: 49.5 µM
- IC50 [2, 6]: 5.9 µM
- IC50 [2, 7]: 3.8 ± 1.6 µg/mL
- SI (ratio CC50:IC50) [2]: 5.3
- CC50 [3]: 31.1 µM
- inhibition of conversion of uncleaved p25 (CA-SP1) to mature p24 (CA) (CA-SP1 cleavage): inhibit the CA-SP1 cleavage; also recorded: accumulation of p25 is observed
- virus morphology / virion maturation by EM (HIV-1 virion morphology): lacked conical cores
- effect on VLP assembly and budding by EM (VLP assembly and budding [4]): net inhibitory effect on VLP assembly and budding

SMILES: C=C(C)[C@@H]1CC[C@]2(C(=O)NC(CCCCNC(=O)OC(C)(C)C)C(=O)O)CC[C@]3(C)[C@H](CC[C@@H]4[C@@]5(C)CC[C@H](OC(=O)CC(C)(C)C(=O)O)C(C)(C)[C@@H]5CC[C@]43C)[C@@H]12 (stereo partly drawn) [Compound 15, N^2—[O^3-(3-carboxy-3-methylbutyryl)betulinyl]-N^6-Boc-L-lysine]
- SI (CC50/IC50 ratio) (HIV-1): 199.41
- CC50 [1]: 33 µM
- IC50 [2, 6]: 1.9 µM
- IC50 [2, 7]: 1 to 2 µg/mL
- IC50, inhibition of HIV-1 VLP assembly ([2]; Sf9 cells, mean ± SEM, n = 4): 1.6 ± 0.5 µg/mL
- SI (ratio CC50:IC50) [2]: 13.0
- CC50 [3]: 24.7 µM
- inhibition of conversion of uncleaved p25 (CA-SP1) to mature p24 (CA) (CA-SP1 cleavage): inhibit the CA-SP1 cleavage; also recorded: accumulation of p25 is observed
- virus morphology / virion maturation by EM (HIV-1 virion morphology): lacked conical cores
- effect on VLP assembly and budding by EM (VLP assembly and budding [4]): net inhibitory effect on VLP assembly and budding

SMILES: C=C(C)[C@@H]1CC[C@]2(C(=O)NCCN)CC[C@]3(C)C(CCC4[C@@]5(C)CC[C@H](OC(=O)CC(C)(C)C(=O)O)C(C)(C)C5CC[C@]43C)C12 (stereo partly drawn) [Compound 16, 4-({28-[(2-aminoethyl)amino]-28-oxolup-20,29-en-3β-yl}oxy)-2,2-dimethyl-4-oxobutanoic acid]
- level of cytotoxicity compared to the other drugs [3]: lowest level of cytotoxicity

SMILES: C=C(C)[C@@H]1CC[C@]2(C(=O)NCCN)CC[C@]3(C)[C@H](CC[C@@H]4[C@@]5(C)CC[C@H](OC(=O)CC(C)(C)C(=O)O)C(C)(C)[C@@H]5CC[C@]43C)[C@@H]12 [Compound 16, 4-({28-[(2-aminoethyl)amino]-28-oxolup-20,29-en-3β-yl}oxy)-2,2-dimethyl-4-oxobutanoic acid]
- CC50 [1]: 33.9 µM
- CC50 [3]: 120 µM
- inhibition of conversion of uncleaved p25 (CA-SP1) to mature p24 (CA) (CA-SP1 cleavage): inhibit the CA-SP1 cleavage; also recorded: accumulation of p25 is observed
- virus morphology / virion maturation by EM (HIV-1 virion morphology): lacked conical cores
- Gag oligomerization status after BS3 cross-linking (Pr55Gag): favored the occurrence and/or the stability and persistence of Gag trimers

SMILES: C=C(C)[C@@H]1CC[C@]2(C(=O)NC(CCCCN)C(=O)O)CC[C@]3(C)[C@H](CC[C@@H]4[C@@]5(C)CC[C@H](OC(=O)CC(C)(C)C(=O)O)C(C)(C)[C@@H]5CC[C@]43C)[C@@H]12 (stereo partly drawn) [Compound 17, N^2-[3β-(3-carboxy-3-methylbutanoyloxy)lup-20,29-en-28-oyl]-L-lysine]
- VLP / particle assembly inhibition (in words) ([2]; FIG. 6): resembled that of 12

SMILES: C=C(C)[C@@H]1CC[C@]2(C(=O)O)CC[C@]3(C)[C@H](CC[C@@H]4[C@@]5(C)CC[C@H](OC(=O)CC(C)(C)C(=O)O)C(C)(C)[C@@H]5CC[C@]43C)[C@@H]12 [DSB, 3-O-(3′,3′-dimethylsuccinyl)-betulinic acid, reference compound]
- IC50 ([2]; Human immunodeficiency virus 1, read-out: IC50, VLP formation): 3.8 to 4.2 µM
- IC50 ([2]; Human immunodeficiency virus 1, read-out: IC50, inhibition of HIV-1 VLP assembly): 3 ± 1 µg/mL
- IC50 ([2]; Human immunodeficiency virus 1, read-out: concentration for 50% inhibition of VLP formation): 2.2 to 2.5 µg/mL
- inhibition of conversion of uncleaved p25 (CA-SP1) to mature p24 (CA) (CA-SP1 cleavage; listed as 2): inhibit the CA-SP1 cleavage; also recorded: accumulation of p25 is observed
- virus morphology / virion maturation by EM (HIV-1 virion morphology): lacked conical cores
- effect on VLP budding and egress (VLP assembly and budding [5]): totally abolished VLP budding and egress
- IC50 (HIV-1 VLP): 8 to 10 µM
